In US20140080885A1, “METHODS OF TREATING TRAUMATIC BRAIN INJURY” (University of South Florida (A Florida Non-Profit …, priority 2012, published 2014):

System: CA3 layer of the hippocampus in rats 24 hrs following TBI
Assay: Hippocampal damage after TBI (lateral fluid percussion injury), Fluoro-Jade staining of degenerating neurons
Type: in vivo, Male Sprague-Dawley rats
Conditions: vs vehicle (2.5% DMSO in saline), p<0.0293 ANOVA with Dunnett's post-hoc test
Description: FIG. 1 illustrates that Carvedilol treatment reduces hippocampal damage following TBI. Representative images of the CA3 layer of the hippocampus in rats 24 hrs following TBI, vehicle treated (A) and carvedilol treated (B) at 1 and 12 hrs following the insult. […] Images were taken at 4× magnification. Dosing was subcutaneous and the vehicle is 2.5% DMSO in saline.
All animal procedures were conducted in accordance with the NIH Guide for the Care and Use of Laboratory Animals following a protocol approved by the Institutional Animal Care and Use Committee at the University of South Florida. Male Sprague-Dawley rats (Harlan, Indianapolis, Ind.) weighing 250 to 300 g were housed in a climate-controlled room with water and laboratory chow available ad libitum. A total of 33 animals were used in this study.
Induction of Lateral Fluid Percussion Injury (LFPI) Animals were anesthetized using a mixture of ketamine (90 mg/kg)/xylazine (10 mg/kg) (IP). […] Impact pressures were measured using a transducer attached to the point of impact on the fluid percussive device. […]
All quantitation was performed using the NIH Image J software. […] Photomicrographs captured at 200× magnification with an Olympus DP70 camera were used for quantification. […] The channels of the RGB images were split and the green channel was used for quantitation of the FJ staining images. […]

SMILES: COc1ccccc1OCCNCC(O)COc1cccc2[nH]c3ccccc3c12 (racemic) [Carvedilol, (±)-[3-(9H-carbazol-4-yloxy)-2-hydroxypropyl][2-(2-methoxyphenoxy)ethyl]amine]
- hippocampal damage following TBI (subcutaneous dosing at 1 and 12 hrs following the insult): significantly reduces hippocampal damage
- hippocampal damage following TBI (subcutaneous dosing at 6 and 12 (hrs) following the insult): significantly reduces hippocampal damage
